Laboratory results reported in patent EP0458214A1, “Bicyclic 1-azacycloalcanes” (BOEHRINGER INGELHEIM KG, priority 1990, dated 1991).
Substitutions are numbered along the chain they refer to.

Legend:
[1] = target: muskarinen Rezeptoren; experiment: Receptor binding studies (Tabelle A), radioligand displacement; conditions: Radioligand L(+)cis-[2-Methyl-³H]-N,N,N-trimethyl-1, 3-dioxolan-4-methanammonium-jodid; Organ: Cerebraler Cortex (Ratte)
Text: Die zur Synthese notwendigen Ausgangsverbindungen, die entsprechenden Hydroxyazabicycloalkane, sind aus dem Stand der Technik bekannt, [drawing 9] so z.B. für n = O aus JACS 74, 2215 (1952) (IIa), J. Org. Chem. 33, 4376 (1968) (IIb), der europäischen Patentanmeldung 307 140 (III) und J. Pharm. Science 52, 331 (1954) (IV). Ausgangsverbindungen (R = H), in denen n = 1 oder 2 bedeutet, sind durch Reduktion der entsprechenden Alkylester (X -R = COOAlkyl) erhältlich. Ausgehend von den entsprechenden Ketonen lassen sich die Thiole der allgemeinen Formeln II und III in Analogie zu dem in J. Chem. 43, 1965 beschriebenen Verfahren herstellen. Ist R in der allgemeinen Formel I ein aromatischer oder heteroaromatischer Rest, so können die Verbindungen der allgemeinen Formel I unter Anwendung der Mitsunobu Reaktion (O. Mitusunobu in Synthesis, 1, 1981, Georg Thieme Verlag, Stuttgart; J. C. S. Perkin I, Seite 462, 1975) durch Umsetzung der entsprechenden hydroxysubstituierten Reaktanden (Formel I R=H, Reagenz HOR, R=Phenyl,Heterocyclus) in Gegenwart von Azodicarbonsäurediethylester und Triphenylphospin erhalten werden. Die Umsetzung erfolgt im allgemeinen in inerten organischen Lösungsmitteln bei Raumtemperatur. Die Verbindungen der allgemeinen Formel I besitzen wertvolle pharmakologische Eigenschaften. So zeigen die Verbindungen in Bindungsstudien Affinitäten zu muskarinen Rezeptoren und muskarin-agonistische GTP-Shifts (GTP = Guanosintriphosphat). (Birdsall, N.I.M., E.C. Hulme and I.M. Stockton 1984 in T.I.P.S. Supplement, Proc. Internat. Symposium on Subtypes of Muscarinic Receptors, Ed. Hirschowitz, Hammer, Giacchetti, Klirns, Levine; Elsevier p. 4 - 8).
Die Rezeptorbindungsstudien wurden gemäß dem nachstehenden Literaturzitat ausgeführt [A. Closse, H. Bittiger, D. Langenegger und A. Wahner; Naunyn-Schmiedeberg's Arch. Pharmacol. 335, 372 - 377 (1987)].
Radioligand: L(+)cis-[2-Methyl-³H]-N,N,N-trimethyl-1, 3-dioxolan-4-methanammonium-jodid NET-647, Fa. NEN (New England Nuclear DU PONT). Organ: Cerebraler Cortex (Ratte)

[2] = target: T1, human-m₁-Rezeptorsubtyp (Homo sapiens, UniProt P11229); experiment: Stimulation of phosphatidylinositol turnover in CHO cell cultures; format: cell-based; conditions: CHO-Zellkulturen mit human-m₁-Rezeptorsubtyp; gegenüber dem Razemat und dem (-)-Enantiomer
T1 construct: expressed in transfected cells; host or cells: CHO cells
T1 sequence (P11229 1-460): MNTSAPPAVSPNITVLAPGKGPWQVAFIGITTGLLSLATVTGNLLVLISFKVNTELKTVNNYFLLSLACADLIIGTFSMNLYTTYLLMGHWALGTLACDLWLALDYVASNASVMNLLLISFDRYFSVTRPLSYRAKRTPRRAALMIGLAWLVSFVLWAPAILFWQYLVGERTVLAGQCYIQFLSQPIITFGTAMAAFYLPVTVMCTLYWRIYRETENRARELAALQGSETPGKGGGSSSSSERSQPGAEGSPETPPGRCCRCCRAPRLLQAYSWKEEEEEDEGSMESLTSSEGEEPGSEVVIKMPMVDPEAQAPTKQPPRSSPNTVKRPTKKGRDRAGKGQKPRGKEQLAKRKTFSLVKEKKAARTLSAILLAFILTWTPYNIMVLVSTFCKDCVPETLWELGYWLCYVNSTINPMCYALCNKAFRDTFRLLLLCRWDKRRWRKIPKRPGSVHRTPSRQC

[3] = tested on: Kaninchen; experiment: Cholinomimetic in vivo activity by EEG (theta wave increase)
Text: Die cholinomimetische in-vivo-Wirksamkeit von (+)-(Propargyloxymethyl)-1-aza-bicyclo- [2.2.2]octan wurde am Kaninchen mittels EEG (Thetawellenzunahme) nachgewiesen.

[4] = target: T2, Muskarinsubtypen M₁ (Rattus norvegicus, UniProt P08482); experiment: Binding studies at muscarinic subtypes; parameters: species or system Ratte; conditions: gegenüber dem Razemat und dem (-)-Enantiomer
T2 sequence (P08482 1-460): T1 sequence (P11229 1-460) with A5V, T254S, P309S, R320K, A337G, I413V

[5] = target: T3, Muskarinsubtypen M₂ (Rattus norvegicus, UniProt P10980); experiment: Binding studies at muscarinic subtypes; parameters: species or system Ratte; conditions: gegenüber dem Razemat und dem (-)-Enantiomer
T3 sequence (P10980 1-466): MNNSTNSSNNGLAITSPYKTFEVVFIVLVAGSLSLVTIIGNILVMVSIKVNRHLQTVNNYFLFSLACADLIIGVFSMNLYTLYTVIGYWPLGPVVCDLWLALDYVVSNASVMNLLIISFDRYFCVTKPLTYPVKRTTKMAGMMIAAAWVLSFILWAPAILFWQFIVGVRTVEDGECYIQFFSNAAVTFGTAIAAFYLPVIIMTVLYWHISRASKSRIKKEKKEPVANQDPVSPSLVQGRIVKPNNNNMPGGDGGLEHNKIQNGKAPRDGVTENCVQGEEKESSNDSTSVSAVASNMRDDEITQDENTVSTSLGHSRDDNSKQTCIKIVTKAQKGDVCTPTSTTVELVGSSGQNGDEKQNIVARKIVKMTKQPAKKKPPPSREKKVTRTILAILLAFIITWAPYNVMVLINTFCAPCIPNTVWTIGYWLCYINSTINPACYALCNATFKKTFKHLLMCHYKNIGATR

[6] = target: Muskarinsubtypen M₃ (Rattus norvegicus, UniProt P08483); experiment: Binding studies at muscarinic subtypes; parameters: species or system Ratte; conditions: gegenüber dem Razemat und dem (-)-Enantiomer
Chain of Muskarinsubtypen M₃ (P08483 whole entry): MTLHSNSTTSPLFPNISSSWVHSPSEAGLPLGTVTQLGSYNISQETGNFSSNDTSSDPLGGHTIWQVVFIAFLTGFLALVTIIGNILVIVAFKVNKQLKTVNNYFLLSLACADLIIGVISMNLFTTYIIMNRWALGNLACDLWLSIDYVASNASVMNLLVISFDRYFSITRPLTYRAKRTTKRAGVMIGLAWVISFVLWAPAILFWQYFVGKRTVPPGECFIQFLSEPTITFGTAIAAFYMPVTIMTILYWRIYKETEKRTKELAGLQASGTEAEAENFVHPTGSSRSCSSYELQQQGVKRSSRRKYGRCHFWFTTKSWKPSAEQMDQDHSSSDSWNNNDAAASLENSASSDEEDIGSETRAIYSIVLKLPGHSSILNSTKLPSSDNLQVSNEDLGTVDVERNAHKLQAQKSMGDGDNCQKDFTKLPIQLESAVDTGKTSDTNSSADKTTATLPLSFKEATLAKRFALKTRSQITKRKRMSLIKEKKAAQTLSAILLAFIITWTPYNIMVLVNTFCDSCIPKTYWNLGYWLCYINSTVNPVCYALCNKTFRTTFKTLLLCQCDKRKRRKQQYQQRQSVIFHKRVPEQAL

c1ccc(COC2CN3CCC2CC3)cc1 (racemic) [Beispiel 4]
Ki [1]: 229 nM

c1ccc(OC2CN3CCC2CC3)cc1 (centres unmarked) [Beispiel 9, 3-Phenoxy-1-azabicyclo[2.2.2]octan]
Ki [1]: 89 nM

c1cncc(OC2CN3CCC2CC3)c1 (centres unmarked) [Beispiel 1]
Ki [1]: 120 nM

C#CCOCC1CN2CCC1CC2 (single isomer, unassigned; (+)) [(+)-3-(Propargyloxymethyl)-1-azabicyclo[2.2.2]octan]
Stimulation des Phosphatidylinositol-turnovers [2]: stärker wirksam | cholinomimetische in-vivo-Wirksamkeit (Thetawellenzunahme) [3]: nachgewiesen | Bindungsstudien M₁: Wirksamkeit in vitro [4]: stärker wirksam | Bindungsstudien M₂: Wirksamkeit in vitro [5]: stärker wirksam | Bindungsstudien M₃: Wirksamkeit in vitro [6]: stärker wirksam
